Measured values taken from PMC5290484, “Structure and lipid-binding properties of the kindlin-3 pleckstrin homology domain” (Biochemical Journal, 2017).
Read-outs that look alike come from different tables or passages of the source.

What was measured:
kindlin-3 PH domain [1] = target: T1, kindlin-3 PH domain (Mus musculus, UniProt Q8K1B8); experiment: SPR, immobilised biotinylated kindlin-3 PH domain as ligand, lipid nanodiscs as analyte; format: binding
T1 construct: kindlin-3 PH domain (residues 344–479); His6-GST (tandem), followed by HRV-3C site (N, cleaved yes); made in house; host or cells: BirA+ Escherichia coli strain
Experimental: (§1) The observation in MD simulation that multiple phosphoinositol molecules may bind to more than one site on a single PH domain (Figures 2 and 3) led us to attempt further verification of this mode of interaction experimentally. […] To study the effect of phosphatidylinositol lipid concentrations on their binding by PH domains, we performed the SPR experiments in an inverted set-up. The biotinylated PH domain was immobilised onto the sensor chip and the nanodiscs were prepared as the analyte.
POPC and POPE (1-palmitoyl-2-oleoyl-sn-glycero-3-phosphoethanolamine) were purchased from Avanti Polar Lipids, and PtdIns(4,5)P2 (P-4516), PtdIns(3,4,5)P3 (P-3924), and Ins(1,3,4,5)P4 (Q-1345) were purchased from Echelon Biosciences. Nanodiscs were prepared following standard protocols. Briefly, to prepare nandiscs containing 5% (mol/mol) PtdIns(3,4,5)P3, a mixture of 200 µl of 10 mg/ml POPC, 200 µl of 10 mg/ml POPE together with 670 µl of 0.5 mg/ml PtdIns(3,4,5)P3 in chloroform were dried on a clean Pyrex tube under argon. Chloroform residue was then removed by desiccation in a desiccator attached on a VARIO-SP diaphragm pump (Vacuubrand). The lipid film was subsequently hydrated by adding 1 ml of solubilisation buffer [20 mM HEPES (pH 7.5), 150 mM NaCl, and 17 mM Na-cholate] followed by vigorous votexing. […]

Grp1 PH domain [2] = target: T2, Grp1 PH domain (Homo sapiens, UniProt O43739); design: method as in PMID 26977543; details: same method; ref [34]; cited from earlier work
T2 construct: UniProtKB: O43739) PH domain (residues 264–392) were cloned into a pOPINJ vector; His6-GST (tandem), followed by HRV-3C site (N, cleaved yes); made in house; host or cells: E. coli (same protocol as kindlin-3 PH, B834)
T2 sequence (O43739 264-392): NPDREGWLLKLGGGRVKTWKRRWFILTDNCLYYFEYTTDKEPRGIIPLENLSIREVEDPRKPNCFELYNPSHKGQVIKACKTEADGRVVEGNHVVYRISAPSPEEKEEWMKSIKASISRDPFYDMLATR

kindlin-3 PH domain [3] = target: T1, kindlin-3 PH domain; experiment: SPR, immobilised biotinylated lipid headgroup as ligand, kindlin-3 PH domain WT as analyte; format: binding
Source text: To verify the potential interaction between clustered phosphatidylinositol phosphates and the kindlin-3 PH domain observed in our MD simulations, we conducted surface plasmon resonance (SPR) experiments. Firstly, a biotinylated inositol phosphate was immobilised onto a streptavidin-derivatised sensor chip, as in previous studies. The use of streptavidin-mediated immobilisation meant that the distance separating individual lipids would be larger than the size of the tetrameric streptavidin, and therefore than the PH domain itself, meaning that one PH domain would be able to bind no more than one lipid headgroup simultaneously, imposing one-to-one binding in the interaction (Figure 4A). […] We note that, in the MD simulation with the mutated form of the kindlin-3 PH domain, the protein is capable of binding to the bilayer in a similar orientation to the wild type (WT); however, in many simulations, it quickly dissociates from the bilayer (Supplementary Figure S8). A naturally occurred IPRR (isoleucine–proline–arginine–arginine) insertion in the β1–β2 loop of kindlin-3 has been reported to disable integrin activation and thus lymphocyte adhesion and migration.
(§2) SPR experiments were performed using a Biacore T200 machine (GE Healthcare Life Sciences) at 20°C in 10 mM HEPES (pH 7.5) and 150 mM NaCl. PtdIns(4,5)P2 (C-45B6a) and PtdIns(3,4,5)P3 (C-39B6a) were purchased from Echelon Biosciences. The BIAcore CM5 chip (GE Healthcare Life Sciences) was firstly covered with streptavidin following the manufacturer's instructions before the biotinylated PIPs or biotinylated proteins were immobilised. The analyte with twofold serial dilutions was applied at a flow rate of 20 µl/min for 180 s followed by 600 s of dissociation time. The biosensor chip was regenerated after each sample injection cycle with a different buffer in the two experimental set-ups: in the case of immobilised PIPs on the sensor chip, 0.1% SDS was used; when the PH domain was immobilised, then the surface was regenerated by 2 M MgCl2. The data were fit with a 1:1 Langmuir adsorption model (B = BmaxC/(KD + C), where B is the response of bound analyte and C is the concentration of the analyte in the sample to calculate the dissociation constant (KD) using the BIAanalysis software. The molecular mass of the nanodiscs for SPR analysis was estimated to be 120 kDa.

Grp1 PH domain [4] = target: T2, Grp1 PH domain; experiment: SPR, immobilised lipid headgroup as ligand, Grp1 PH domain as analyte; format: binding
Source text: We further asked whether our observations are specific to the kindlin-3 PH domain (and similar domains) or could also be shown for PH domains which are already known to bind to inositol phosphate species in a classical, 1:1 interaction mode. If they could be shown for such well-characterised domains, then our results with the kindlin-3 PH domain would seem questionable. […] So, in the case of Grp1, there is only a five times difference in affinity between immobilised lipid headgroups and whole lipids in a lipid nanodisc (rather than the ∼100× enhancement observed with the kindlin-3 PH domain).
SPR experiments were performed using a Biacore T200 machine (GE Healthcare Life Sciences) at 20°C in 10 mM HEPES (pH 7.5) and 150 mM NaCl. PtdIns(4,5)P2 (C-45B6a) and PtdIns(3,4,5)P3 (C-39B6a) were purchased from Echelon Biosciences. The BIAcore CM5 chip (GE Healthcare Life Sciences) was firstly covered with streptavidin following the manufacturer's instructions before the biotinylated PIPs or biotinylated proteins were immobilised. The analyte with twofold serial dilutions was applied at a flow rate of 20 µl/min for 180 s followed by 600 s of dissociation time. […]

[5] = system: T3, kindlin-3 PH domain, two lysines within the β1–β2 loop mutated; experiment: SPR, immobilised kindlin-3 PH domain with two β1–β2 loop lysines mutated, lipid nanodiscs as analyte; format: binding, mouse; details: site-directed mutagenesis of two lysines within the β1–β2 loop
T3 construct: kindlin-3 PH domain (residues 344–479); His6-GST (tandem), followed by HRV-3C site (N, cleaved yes); made in house; host or cells: BirA+ Escherichia coli strain
Experimental: as §1
as §2, with “The data were fit with a 1:1 Langmuir adsorption model (B = BmaxC/(KD + C), where B is the response of bound analyte and C is the concentration of the analyte in the sample to calculate the dissociation constant (KD) using the BIAanalysis software. The molecular mass of the nanodiscs for SPR analysis was estimated to be 120 kDa.” left out

[6] = immobilised headgroup on streptavidin chip, WT PH domain as analyte, 20°C, 10 mM HEPES pH 7.5, 150 mM NaCl, 1:1 Langmuir fit, read-out: dissociation constant (KD)

T1 sequence (Q8K1B8 344-479): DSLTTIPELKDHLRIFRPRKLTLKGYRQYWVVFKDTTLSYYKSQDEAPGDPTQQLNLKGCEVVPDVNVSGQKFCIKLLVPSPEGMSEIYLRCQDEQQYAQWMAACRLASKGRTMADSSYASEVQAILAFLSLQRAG

Row | nanodisc binding to the PH domain (in words) (kindlin-3 PH domain [1]; inositol phosphate lipid 5% of total lipids in nanodisc) | Kd (kindlin-3 PH domain [3]; [6]) | Kd (kindlin-3 PH domain [3]; immobilised headgroup, PH domain as analyte, as given in the abstract, read-out: affinity (KD)) | nanodisc binding to the PH domain (in words) (kindlin-3 PH domain [1]; PtdIns(3,4,5)P3 composition reduced to 1% of nanodisc lipids) | Bmax (Grp1 PH domain [4]; immobilised PtdIns(3,4,5)P3 headgroup) | Kd (Grp1 PH domain [4]; immobilised headgroup) | Kd (kindlin-3 PH domain [3]; immobilised headgroup on streptavidin chip, WT PH domain as analyte, 20°C, 10 mM HEPES pH 7.5, 150 mM NaCl, 1:1 Langmuir fit, listed as PIP3, read-out: dissociation constant (KD)) | Substance | PMF well depth (Grp1 PH domain [2]) | nanodisc binding to the PH domain (in words) [5]
1 | no affinity | 1100 µM | 1000 µM | – | – | – | – | PtdIns(4,5)P2 | -3.8 kcal/mol | –
2 | – | 300 µM | – | abolishes nanodisc binding | 7150 RU | 2.8 ± 0.4 µM | ~300 µM | PtdIns(3,4,5)P3 | -5.3 kcal/mol | abolishes nanodisc binding
